The values that follow come from US8148421B2, “Phenylacetic acid derivative” (Fuji Yakuhin Co., Ltd., priority 2006, dated 2012).

Broadly, the ED50 is the dose at which the effect has come halfway, by size or by number of responders. The low end stands for an effect at a small dose, the high end for a need for a large dose.

Tested on in one series: not listed separately
The experiment in a line: Safety factor (UD30 gastric mucosa injury / ED50 anti-pollakiuria). The format is in vivo. The note with it: SD, rat, in vivo. An excerpt: Safety factor was obtained in accordance with the following equation using the ED50 value and UD30 value obtained in the tests for the anti-pollakiuria effect in CPA-induced rat pollakiuria model and the gastric mucosa injury induction action by single oral administration in rats, respectively. Safety factor=UD30 value (mg/kg) for gastric mucosa injury induction action by single oral administration in rats/ED50 value (mg/kg) for anti-pollakiuria effect in CPA-induced rat pollakiuria model
Compound `CC(C(=O)O)c1ccc(CC2CCCC2=O)cc1` (centres unmarked) [Loxoprofen-Na, reference compound] registered a Safety factor of 14.

Still in this series, the particulars now being: UD30 value (mg/kg) / ED50 value (mg/kg), rats.
`C[C@H](C(=O)O)c1ccc(/C=C2\SCC[C@@H]2O)cc1` [Example 19-C, (2S,3′S)-2-{4-[3-Hydroxythiolan-(Z)-2-ylidenemethyl]phenyl}propionic Acid] displayed a Safety factor of 138.

The next series has as its system CPA-induced rat pollakiuria model. Briefly: Anti-pollakiuria effect in cyclophosphamide (CPA)-induced rat pollakiuria model. The format is in vivo. The note with it: oral administration, male SD rats, CPA 150 mg/kg i.p., urination frequency over 3 hours, probit method. As to the method: 1. Anti-Pollakiuria Effect in Cyclophosphamide (CPA)-Induced Rat Pollakiuria Model
To 7-week old male SD rats, 150 mg/kg of CPA was intraperitoneally administered, and the rats were starved for 24 hours, and then used for the test. Thirty minutes after the oral administration of the test substance, physiological saline (30 ml/kg) was orally administered, the rats were put into a metabolism cage for rats, and then frequency of urination was counted for 3 hours. For the counting of the frequency of urination, a weighing dish hung from an FD pickup was disposed at a urine outlet at the lower part of the metabolism cage, and frequency of urination was obtained based on change of urination volume obtained by a polygraph apparatus. To a control (treated with CPA) and an intact control (no treatment), the solvent was orally administered, and frequency of urination was counted in the same manner. Improvement rate of pollakiuria induced by the CPA treatment relative to the control was calculated in accordance with the following equation, and ED50 value was further calculated by the probit method based on the improvement rate at each dose. Improvement rate (%)=(Urination frequency of control−Urination frequency observed with test substance)/(Urination frequency of control−Urination frequency of intact control)×100
For `C[C@H](C(=O)O)c1ccc(/C=C2\SCC[C@@H]2O)cc1` [Example 19-C, (2S,3′S)-2-{4-[3-Hydroxythiolan-(Z)-2-ylidenemethyl]phenyl}propionic Acid], the ED50 came to 0.1 mg/kg. The same measure, in the same setting: to `CC(C(=O)O)c1ccc(CC2CCCC2=O)cc1` (centres unmarked) [Loxoprofen-Na, reference compound] belongs 1.8 mg/kg.

The subject of a further series is gastric mucosa. The experiment in a line: Gastric mucosa injury induction action by single oral administration in rats. Type of series: in vivo, rat. The note with it: starved male SD rats, stomach examined after 5 hours, probit method. The protocol: 2. Gastric Mucosa Injury Induction Action by Single Oral Administration in Rats
7-Week old male SD rats were starved for 24 hours, and then used for the test. Five hours after the oral administration of a test substance, the stomach was extracted, and incised along the greater curvature of stomach, and a stomach specimen was fixed in a neutrally buffered 1% formalin solution. The stomach specimen was observed under a stereoscopic microscope, and when specimen had four or more hemorrhagic sores or ulcers having a major axis of 0.5 mm or larger, the result was judged to be positive. […]
Turning to `C[C@H](C(=O)O)c1ccc(/C=C2\SCC[C@@H]2O)cc1` [Example 19-C, (2S,3′S)-2-{4-[3-Hydroxythiolan-(Z)-2-ylidenemethyl]phenyl}propionic Acid], the “UD30 value (gastric mucosa injury)” value is 13.8 mg/kg. Regarding `CC(C(=O)O)c1ccc(CC2CCCC2=O)cc1` (centres unmarked) [Loxoprofen-Na, reference compound], the “UD30 value (gastric mucosa injury)” value worked out at 25.5 mg/kg.

The next series deals with PGE2 production in A549 cells. The experiment in a line: Suppressing action against PGE2 production in human cultured cells (A549, IL-1β-induced cyclooxygenase 2, arachidonic acid added). Type of series: cell-based. To be noted: 10 μM test substance, PGE2 in medium by EIA, duplicate. As to the method:
In Vitro Evaluation Method (Suppressing Action Against PGE2 Production in Human Cultured Cells)
A549 cells were inoculated on a 24-well plate (10^5 cells/ml/well), and cultured for 1 day in the Ham's F-12 medium containing 10% fetal bovine serum (FBS). The medium was removed, and the cells were washed with Dulbecco's phosphate buffered saline (PBS), and then cultured for 3 days in the Ham's F-12 medium containing 1 ng/ml of a recombinant human IL-1β and FBS to induce cyclooxygenase 2. After the medium was removed, and the cells were washed with PBS, 0.99 ml of the Ham's F-12 mediums containing a test substance (dissolved in dimethyl sulfoxide at a final concentration of 1% and added) and […] L-glutathione reduced was added to the cells, and the cells were incubated at 37° C. for 30 minutes in a 5% CO2 incubator. To the culture was added 10 μl of a 0.5 mg/ml solution of arachidonic acid in ethanol (final concentration: 5 μg/ml), and the reaction was performed by incubating the culture at 37° C. and 50 rpm for 30 minutes. After completion of the reaction, the medium was immediately collected, and the PGE2 concentration in the medium was measured by using Prostaglandin E2 Express EIA Kit (Cayman Chemical). Dimethyl sulfoxide not containing the test substance was added to a blank and a control, and ethanol not containing arachidonic acid was added to the blank to perform the reaction. The experiment was performed in duplicate. The suppression rate of the test substance based on the control was calculated by using the following equation. Suppression rate (100%)=100×[1−(PGE2 concentration in medium containing test substance−PGE2 concentration in medium of blank)/(PGE2 concentration in medium of control−PGE2 concentration in medium of blank)]
Take `CC(C(=O)O)c1ccc(CC2SCCC2O)cc1` (single isomer, unassigned) [Example 27-B, 2-[4-(3-Hydroxythiolan-2-ylmethyl)phenyl]propionic Acid]: the “PGE2 production suppression rate at 10 μM, Suppression rate (%)” value (“PGE2 production suppression rate … (%)” for short) was 76.3%. In the case of `CC(C(=O)O)c1ccc(CC2SCCC2O)cc1` (single isomer, unassigned) [Example 27-A, 2-[4-(3-Hydroxythiolan-2-ylmethyl)phenyl]propionic Acid], the “PGE2 production suppression rate … (%)” value came to 40.0%. Regarding `CC(C(=O)O)c1ccc(CC2CCCC2O)cc1` (centres unmarked) [LXP-2a, reference compound], the “PGE2 production suppression rate … (%)” value came out at 92.0%.

Still in this series, the particulars now being: Homo sapiens, A549, 0.5 h, 10 μM test substance, PGE2 in medium by EIA, duplicate, read-out: PGE2 production suppression rate at 10 μM, Suppression rate (%).
Consider `C[C@H](C(=O)O)c1ccc(/C=C2\SCC[C@@H]2O)cc1` [Example 19-C, (2S,3′S)-2-{4-[3-Hydroxythiolan-(Z)-2-ylidenemethyl]phenyl}propionic Acid], for which the inhibition at 10 µM was determined as 101%. Consider `O=C(O)Cc1ccc(/C=C2\SCCC2O)cc1` (centres unmarked) [Example 31, 4-(3-Hydroxythiolan-2-ylidenemethyl)phenylacetic Acid], for which the inhibition at 10 µM amounted to 85.9%. In the case of `COc1cc(/C=C2\SCCC2O)ccc1C(C)C(=O)O` (centres unmarked) [Example 53, 2-[4-(3-Hydroxythiolan-2-ylidenemethyl)-2-methoxyphenyl]propionic Acid], the inhibition at 10 µM stood at 72.8%. As for `CC(C(=O)O)c1ccc(/C=C2\SCCC2O)c([N+](=O)[O-])c1` (centres unmarked) [Example 57, 2-[4-(3-Hydroxythiolan-2-ylidenemethyl)-3-nitrophenyl]propionic Acid], the inhibition at 10 µM stood at 91.6%.

For the compound `C[C@H](C(=O)O)c1ccc(/C=C2/C=CCS2)cc1` [Example 20, (2S)-2-[4-(2,5-Dihydrothien-(Z)-2-ylidenemethyl)phenyl]propionic Acid], the inhibition at 10 µM was 94.5%. The same measure, in the same setting: with `CC(C(=O)O)c1ccc(/C=C2/CCCS2)cc1` (centres unmarked) [Example 37, 2-[4-(Thiolan-2-ylidenemethyl)phenyl]propionic Acid] the figure was 89.7%. Still for that read-out and setting: with `C[C@@H](C(=O)O)c1ccc(/C=C2\SCC[C@@H]2O)cc1` [Example 19-D, (2R,3′S)-2-{4-[3-Hydroxythiolan-(Z)-2-ylidenemethyl]phenyl}propionic Acid] the figure was 44.5%; with `CCOC(=O)C(C)c1ccc(/C=C2\SCCC2=O)cc1` (centres unmarked) [Example 15, Ethyl 2-{4-[3-oxothiolan-(Z)-2-ylidenemethyl]phenyl}propionate], 36.9%. For the compound `CC(C(=O)O)c1ccc(/C=C2\SCCC2O)cc1` (centres unmarked) [Example 18, 2-{4-[3-Hydroxythiolan-(Z)-2-ylidenemethyl]phenyl}propionic Acid], the inhibition at 10 µM was determined as 99.5%. `CC(C(=O)O)c1ccc(/C=C2\CSCC2O)cc1` (centres unmarked) [Example 22, 2-[4-(4-Hydroxythiolan-3-ylidenemethyl)phenyl]propionic Acid]: the inhibition at 10 µM amounted to 99.7%. Consider `O=C(O)Cc1ccc(/C=C2\SCCC2=O)cc1` [Example 29, 4-(3-Oxothiolan-2-ylidenemethyl)phenylacetic Acid], for which the inhibition at 10 µM is 96.8%. Regarding `CC(C(=O)O)c1ccc(CC2CSCC2O)cc1` (centres unmarked) [Example 9-A, 2-[4-(4-Hydroxythiolan-3-ylmethyl)phenyl]propionic Acid], the inhibition at 10 µM came out at 34.7%.

In the case of `CC(C(=O)O)c1ccc(CC2SCCC2=O)cc1` (centres unmarked) [Example 26, 2-[4-(3-Oxothiolan-2-ylmethyl)phenyl]propionic Acid], the inhibition at 10 µM amounted to 79.6%. Consider `CC(C(=O)O)c1cccc(/C=C2\SCCC2O)c1` (centres unmarked) [Example 69, 2-[3 (3-Hydroxythiolan-2-ylidenemethyl)phenyl]propionic Acid], for which the inhibition at 10 µM worked out at 22.8%. For `CC(C(=O)O)c1ccc(/C=C2\SCCC2(F)F)cc1` (centres unmarked) [Example 25, 2-[4-(3,3-Difluorothiolan-2-ylidenemethyl)phenyl]propionic Acid], the inhibition at 10 µM is 73.3%. For `CC(C(=O)OC(C)(C)C)c1ccc(/C=C2\SCCC2=O)cc1` (centres unmarked) [Example 13, tert-Butyl 2-{4-[3-oxothiolan-(Z)-2-ylidenemethyl]phenyl}propionate], the inhibition at 10 µM was determined as 48%. Regarding `CC(C(=O)O)c1ccc(/C=C2\CSCC2=O)cc1` (centres unmarked) [Example 23, 2-[4-(4-Oxothiolan-3-ylidenemethyl)phenyl]propionic Acid], the inhibition at 10 µM was 102%.

On to `CC(C(O)=S)c1ccc(CC2CSCC2=O)cc1` (centres unmarked) [Example 11, 2-[4-(4-Oxothiolan-3-ylmethyl)phenyl]thiopropionic Acid], for which the inhibition at 10 µM stood at 49.2%.

For `CC(C(=O)O)c1ccc(/C=C2\SCCCC2O)cc1` (centres unmarked) [Example 5, 2-[4-(3-Hydroxythian-2-ylidenemethyl)phenyl]propionic Acid], the inhibition at 10 µM was 68.4%. Consider `CC(C(=O)O)c1ccc(/C=C2\CCSC2=O)cc1` (centres unmarked) [Example 35, 2-[4-(2-Oxothiolan-3-ylidenemethyl)phenyl]propionic Acid], for which the inhibition at 10 µM came to 44%. As to `CC(C(=O)O)c1ccc(CC2CSCC2=O)cc1` (centres unmarked) [Example 8, 2-[4-(4-Oxothiolan-3-ylmethyl)phenyl]propionic Acid], the inhibition at 10 µM worked out at 66.4%. Regarding `CC(C(=O)O)c1ccc(/C=C2\SCCC2O)c(F)c1` (centres unmarked) [Example 61, 2-[3-Fluoro-4-(3-hydroxythiolan-2-ylidenemethyl)phenyl]propionic Acid], the inhibition at 10 µM came to 92.8%.

As to `CC(C(=O)O)c1ccc(/C=C2\SCCC2=O)cc1` (centres unmarked) [Example 14, 2-{4-[3-Oxothiolan-(Z)-2-ylidenemethyl]phenyl}propionic Acid], the inhibition at 10 µM is 98.5%. On the same count and under the same terms, to `CC(C(=O)O)c1ccc(/C=C2\SCCC2O)c(Cl)c1` (centres unmarked) [Example 65, 2-[3-Chloro-4-(3-hydroxythiolan-2-ylidenemethyl)phenyl]propionic Acid] belongs 101%; to `CC(C(=O)O)c1ccc(CC2C=CSC2)cc1` (centres unmarked) [Example 10, 2-[4-(2,3-Dihydrothiophen-3-ylmethyl)phenyl]propionic Acid], 69.4%; to `CC(C(=O)O)c1ccc(/C=C2\SCCCC2=O)cc1` (centres unmarked) [Example 4, 2-[4-(3-Oxothian-2-ylidenemethyl)phenyl]propionic Acid], 77.8%.
